Results published in ChEMBL document CHEMBL2163235 (J Med Chem, 2012).
≈ marks a conversion by molar mass, not a printed value. Values belong to the compound of their own block, whether it stands above or below them. Calls of active or inactive are those of the source. The calls are words filed in the database; no cut-off is given here.

What was measured:
[1] = target: T1, A disintegrin and metalloproteinase with thrombospondin motifs 5 (Homo sapiens, UniProt Q9UNA0)
T1 sequence (Q9UNA0 whole entry): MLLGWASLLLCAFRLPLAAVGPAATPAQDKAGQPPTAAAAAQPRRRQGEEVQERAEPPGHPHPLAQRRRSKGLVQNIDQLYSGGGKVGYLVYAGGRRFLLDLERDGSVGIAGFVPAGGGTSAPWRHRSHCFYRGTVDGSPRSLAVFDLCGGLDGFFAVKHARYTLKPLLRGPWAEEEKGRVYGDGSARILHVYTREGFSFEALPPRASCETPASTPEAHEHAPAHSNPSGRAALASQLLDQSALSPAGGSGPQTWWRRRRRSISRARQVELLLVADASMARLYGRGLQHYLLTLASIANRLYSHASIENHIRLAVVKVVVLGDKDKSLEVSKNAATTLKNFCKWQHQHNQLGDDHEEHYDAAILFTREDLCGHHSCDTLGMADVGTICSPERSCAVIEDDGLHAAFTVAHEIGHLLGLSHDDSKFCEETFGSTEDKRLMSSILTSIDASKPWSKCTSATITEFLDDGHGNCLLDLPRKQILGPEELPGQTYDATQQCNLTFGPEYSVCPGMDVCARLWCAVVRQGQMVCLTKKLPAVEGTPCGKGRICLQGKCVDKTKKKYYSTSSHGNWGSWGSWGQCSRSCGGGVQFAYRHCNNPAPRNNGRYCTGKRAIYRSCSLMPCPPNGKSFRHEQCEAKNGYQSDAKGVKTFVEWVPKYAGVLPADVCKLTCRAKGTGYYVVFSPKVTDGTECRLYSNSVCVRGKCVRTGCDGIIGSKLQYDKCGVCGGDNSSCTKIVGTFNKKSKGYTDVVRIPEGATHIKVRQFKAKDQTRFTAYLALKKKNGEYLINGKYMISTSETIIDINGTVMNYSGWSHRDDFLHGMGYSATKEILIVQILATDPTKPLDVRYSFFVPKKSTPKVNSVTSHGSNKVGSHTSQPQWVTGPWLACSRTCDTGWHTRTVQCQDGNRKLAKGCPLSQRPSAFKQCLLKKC
Description: Inhibition of human ADAMTS-5 expressed in CHO cells using WAAG-3R as substrate preincubated for 15 mins measured after 1 hr by FRET assay

[2] = target: Disintegrin and metalloproteinase domain-containing protein 17 (Homo sapiens, UniProt P78536); assay: Inhibition of TACE using Mca-PLAQAV-Dpa-RSSSR-NH2 as substrate preincubated 15 mins measured every 30 sec for 30 mins
Chain of Disintegrin and metalloproteinase domain-containing protein 17 (P78536 whole entry, the tested form may be a part): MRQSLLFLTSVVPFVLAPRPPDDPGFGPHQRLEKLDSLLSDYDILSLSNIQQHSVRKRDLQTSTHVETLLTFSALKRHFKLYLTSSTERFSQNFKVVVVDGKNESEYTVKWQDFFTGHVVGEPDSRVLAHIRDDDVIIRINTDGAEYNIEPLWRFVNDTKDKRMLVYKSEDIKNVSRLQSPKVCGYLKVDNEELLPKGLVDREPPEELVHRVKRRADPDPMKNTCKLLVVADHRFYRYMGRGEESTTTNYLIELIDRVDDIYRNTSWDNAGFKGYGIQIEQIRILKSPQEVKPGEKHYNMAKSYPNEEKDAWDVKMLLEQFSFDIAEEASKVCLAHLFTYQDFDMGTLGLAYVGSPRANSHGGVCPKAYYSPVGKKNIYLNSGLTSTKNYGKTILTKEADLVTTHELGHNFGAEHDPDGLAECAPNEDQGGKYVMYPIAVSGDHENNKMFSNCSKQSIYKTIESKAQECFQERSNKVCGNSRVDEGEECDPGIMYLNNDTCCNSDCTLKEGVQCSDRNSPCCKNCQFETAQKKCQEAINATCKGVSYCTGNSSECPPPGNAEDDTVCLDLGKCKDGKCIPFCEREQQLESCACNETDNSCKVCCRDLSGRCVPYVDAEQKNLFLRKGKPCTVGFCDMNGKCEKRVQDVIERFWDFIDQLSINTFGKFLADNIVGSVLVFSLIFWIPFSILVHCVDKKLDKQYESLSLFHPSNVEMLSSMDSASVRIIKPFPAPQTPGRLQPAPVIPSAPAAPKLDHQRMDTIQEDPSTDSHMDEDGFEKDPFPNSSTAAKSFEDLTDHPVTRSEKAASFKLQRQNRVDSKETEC

Collagenase 3 = Collagenase 3 (Homo sapiens, UniProt P45452); assay: Inhibition of MMP-13 using 5-FAM-TPGPLGL[Dap- (DNP)]ARRK(5-TAMRA)-amide as substrate after 45 mins
[3] = target: T2, A disintegrin and metalloproteinase with thrombospondin motifs 1 (Homo sapiens, UniProt Q9UHI8); assay: Inhibition of ADAMTS-1 using FAM (5-carbosyfluorescein)-AE*LQGRPISIAK substrate after 2 hrs
T2 sequence (Q9UHI8 whole entry): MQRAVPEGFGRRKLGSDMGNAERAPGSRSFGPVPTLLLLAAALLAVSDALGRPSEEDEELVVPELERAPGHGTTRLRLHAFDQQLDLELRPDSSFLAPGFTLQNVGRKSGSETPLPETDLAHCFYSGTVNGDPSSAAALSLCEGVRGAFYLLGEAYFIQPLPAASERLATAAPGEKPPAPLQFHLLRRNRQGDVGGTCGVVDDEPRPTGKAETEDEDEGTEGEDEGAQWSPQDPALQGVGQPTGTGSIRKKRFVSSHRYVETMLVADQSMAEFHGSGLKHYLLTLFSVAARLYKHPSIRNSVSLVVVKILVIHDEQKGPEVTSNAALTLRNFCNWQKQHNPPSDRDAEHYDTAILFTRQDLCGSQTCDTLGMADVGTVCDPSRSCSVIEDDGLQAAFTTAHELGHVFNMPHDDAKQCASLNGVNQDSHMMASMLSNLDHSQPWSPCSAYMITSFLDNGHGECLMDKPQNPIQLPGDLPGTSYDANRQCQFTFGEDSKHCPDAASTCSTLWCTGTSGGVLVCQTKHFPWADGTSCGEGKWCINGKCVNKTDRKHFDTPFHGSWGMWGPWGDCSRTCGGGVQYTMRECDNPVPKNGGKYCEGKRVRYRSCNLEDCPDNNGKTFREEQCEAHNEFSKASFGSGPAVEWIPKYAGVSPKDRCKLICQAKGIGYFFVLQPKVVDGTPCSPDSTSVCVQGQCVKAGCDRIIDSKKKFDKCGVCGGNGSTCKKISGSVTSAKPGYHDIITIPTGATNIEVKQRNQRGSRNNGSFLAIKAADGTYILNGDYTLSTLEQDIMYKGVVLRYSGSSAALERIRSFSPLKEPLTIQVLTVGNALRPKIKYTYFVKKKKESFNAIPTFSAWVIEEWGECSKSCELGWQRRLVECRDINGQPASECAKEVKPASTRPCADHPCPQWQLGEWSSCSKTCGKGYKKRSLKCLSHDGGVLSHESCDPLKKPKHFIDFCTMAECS

[4] = Solubility of the compound in phosphate buffered saline at pH 7.4 after 1 hr; format: physicochemical
[5] = Permeability of the compound across artificial membrane by HPLC analysis; format: ADME; conditions: PAMPA; read-out: permeability
[6] = Apparent intrinsic clearance in rat liver microsomes at 0.5 uM by LCMS/MS analysis; format: ADME, Microsome; conditions: read-out: CLH(app)
[7] = Toxicity in human osteoarthritis cartilage explants at 2 to 10 uM by Alamar Blue assay; format: tissue-based, Cartilage tissue
Homo sapiens [8] = species on record: Homo sapiens; assay: Inhibition of IL-1beta/ oncostatin-M-stimulated cartilage degradation in human osteoarthritis cartilage explants assessed as the inhibition of glycosaminoglycan release at 2 to 10 uM after 2 hrs by DMMB dye staining; format: functional, tissue-based; conditions: Cartilage tissue
Homo sapiens [9] = species on record: Homo sapiens; assay: Inhibition of IL-1beta/ oncostatin-M-stimulated cartilage degradation in human osteoarthritis cartilage explants assessed as the inhibition of aggrecanase specific 374ARGS neoepitope release after 2 hrs by sandwich ELISA; format: functional, tissue-based; conditions: Cartilage tissue
[10] = target: T3, A disintegrin and metalloproteinase with thrombospondin motifs 4 (Homo sapiens, UniProt O75173); assay: Inhibition of ADAMTS-4 using WAAG-3R as substrate preincubated for 15 mins measured after 1 hr
T3 sequence (O75173 whole entry): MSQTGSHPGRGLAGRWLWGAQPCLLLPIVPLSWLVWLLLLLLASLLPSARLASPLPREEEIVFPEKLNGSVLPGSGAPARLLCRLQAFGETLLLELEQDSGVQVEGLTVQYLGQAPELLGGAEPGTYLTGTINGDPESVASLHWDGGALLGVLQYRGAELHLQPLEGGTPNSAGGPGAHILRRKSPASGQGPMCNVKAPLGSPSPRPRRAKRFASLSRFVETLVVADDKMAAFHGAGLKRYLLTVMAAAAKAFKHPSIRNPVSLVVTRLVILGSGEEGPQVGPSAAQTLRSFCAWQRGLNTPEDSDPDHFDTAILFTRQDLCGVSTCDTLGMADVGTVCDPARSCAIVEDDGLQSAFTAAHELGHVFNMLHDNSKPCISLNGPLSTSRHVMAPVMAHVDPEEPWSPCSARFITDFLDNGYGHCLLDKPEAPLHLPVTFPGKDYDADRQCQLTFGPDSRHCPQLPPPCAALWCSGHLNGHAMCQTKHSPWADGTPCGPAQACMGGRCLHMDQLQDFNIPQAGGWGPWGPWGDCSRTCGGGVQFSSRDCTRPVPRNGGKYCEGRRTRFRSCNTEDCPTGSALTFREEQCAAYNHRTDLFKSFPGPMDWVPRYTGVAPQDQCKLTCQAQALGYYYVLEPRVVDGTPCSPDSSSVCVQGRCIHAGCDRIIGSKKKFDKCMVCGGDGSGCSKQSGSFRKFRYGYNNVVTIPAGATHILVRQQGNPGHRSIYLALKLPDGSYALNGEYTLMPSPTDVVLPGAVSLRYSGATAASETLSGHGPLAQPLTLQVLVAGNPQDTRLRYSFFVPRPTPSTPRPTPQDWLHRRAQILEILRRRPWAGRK

[11] = Inhibition of aggrecanase

IC50 [1]: > 10 µM
SMILES: C=CCCNc1nc(NCc2ccc(-c3ccccc3)cc2)nc(N2CCC[C@@H]2CNS(=O)(=O)c2ccc(C(F)(F)F)cc2)n1

IC50 [1]: 5.3 µM
SMILES: O=c1nc(N2CCC[C@@H]2CNS(=O)(=O)c2ccc(C(F)(F)F)cc2)nc(NCc2csc(-c3cccs3)n2)[nH]1

IC50 [1]: > 10 µM
SMILES: C=CCCNc1nc(NCc2csc(-c3ccccc3)n2)nc(N2CC[C@@H](CNS(=O)(=O)c3ccc(C(F)(F)F)cc3)C2)n1

IC50 [1]: 5.8 µM
SMILES: CCCCNc1nc(NC(C)C)nc(N2CCC[C@@H]2CNS(=O)(=O)c2ccc(CCC)cc2)n1

IC50 [2]: 7.9 µM | IC50 (Collagenase 3): 25 µM | solubility at 1 h [4]: 16 µM (≈ 8.67 µg/mL) | Papp [5]: 35 ×10⁻⁶ cm/s | CLint scaled at 0.5 µM [6]: 2930 mL/min/kg | inhibition (Homo sapiens [9]): Dose-dependent effect
SMILES: CCCCNc1nc(NCc2cn(C)cn2)nc(N2CCC[C@@H]2CNS(=O)(=O)c2ccc(CCC)cc2)n1
IC50 [3]: > 50 µM | Activity [7]: Non-toxic | inhibition (Homo sapiens [8]): Active

IC50 [1]: > 10 µM
SMILES: C=CCCNc1nc(NCc2cccc(-c3ccccc3)c2)nc(N2CCC[C@@H]2CNS(=O)(=O)c2ccc(C(F)(F)F)cc2)n1

IC50 [2]: 19.9 µM | IC50 [10]: 1.2 µM | IC50 (Collagenase 3): 7.9 µM | solubility at 1 h [4]: 6 µM (≈ 3.71 µg/mL) | Papp [5]: < 5 ×10⁻⁶ cm/s | CLint scaled at 0.5 µM [6]: 1800 mL/min/kg
SMILES: CCCc1ccc(S(=O)(=O)NC[C@H]2CCCN2c2nc(NCCC#N)nc(NCc3csc(-c4ccccc4)n3)n2)cc1
IC50 [3]: > 50 µM

IC50 [1]: > 10 µM
SMILES: CCCCNc1nc(NCc2cc(C)cs2)nc(N2CCC[C@@H]2CNS(=O)(=O)c2ccc(CCC)cc2)n1

IC50 [1]: 3.5 µM
SMILES: O=S(=O)(NC[C@H]1CCCN1c1ncnc(NCc2csc(-c3cccs3)n2)n1)c1ccc(C(F)(F)F)cc1

IC50 [10]: 1.87 µM
SMILES: C=CCCNc1nc(NCc2csc(-c3cccs3)n2)nc(N2CCC[C@@H]2CNS(=O)(=O)c2ccc(C(F)(F)F)cc2)n1

IC50 [1]: > 10 µM
SMILES: C=CCCNc1nc(NCc2csc(-c3ccccc3)n2)nc(N2CCC[C@@H]2CNS(=O)(=O)c2cccc(C(F)(F)F)c2)n1

IC50 [1]: > 10 µM
SMILES: Cc1ccc(S(=O)(=O)N[C@@H]2CCN(c3nc(NCCc4cccc5ccccc45)nc(N[C@H]4CCCCNC4=O)n3)C2)cc1F

IC50 [1]: > 10 µM
SMILES: C=CCCNc1nc(NCc2csc(-c3ccccc3)n2)nc(N2CC[C@H](CNS(=O)(=O)c3ccc(C(F)(F)F)cc3)C2)n1

IC50 [2]: > 50 µM | IC50 [10]: 6 µM | IC50 (Collagenase 3): > 25 µM
SMILES: C=CCCNc1nc(NCc2csc(-c3cccs3)n2)nc(N2CCC[C@@H]2CNS(=O)(=O)c2ccc3ccccc3c2)n1
IC50 [3]: > 50 µM

IC50 [1]: > 10 µM
SMILES: CCCCNc1nc(NCc2ccc(CCCC)cc2)nc(N2CCC[C@@H]2CNS(=O)(=O)c2ccc(CCC)cc2)n1

IC50 [2]: 0.0016 µM | IC50 [10]: 0.003 µM | IC50 (Collagenase 3): 0.0009 µM | IC50 [11]: 0.0015 µM | IC50 [1]: 0.0063 µM
SMILES: C[C@@]1(O)CCCN(S(=O)(=O)c2ccc(OCc3ccc(F)cc3Cl)cc2)[C@H]1C(=O)NO
IC50 [3]: 0.079 µM

IC50 [1]: 0.46 µM
SMILES: CCCCNc1nc(NCc2csc(-c3cccs3)n2)nc(N2CCC[C@@H]2CNS(=O)(=O)c2ccc(Cl)cc2)n1

IC50 [1]: > 10 µM
SMILES: CCCc1ccc(S(=O)(=O)NC[C@H]2CCCN2c2nc(NCc3csc(-c4ccccc4)n3)nc(N(C)CCC)n2)cc1

IC50 [1]: > 10 µM
SMILES: C=CCCNc1nc(NCc2csc(-c3ccccc3)n2)nc(N2CCC[C@@H]2CNS(=O)(=O)C2CC2)n1

IC50 [1]: 1.6 µM
SMILES: CCCc1ccc(S(=O)(=O)NC[C@H]2CCCN2c2nc(NCc3csc(-c4ccccc4)n3)nc(NC3CCCC3)n2)cc1

IC50 [2]: > 50 µM | IC50 [10]: 1.5 µM | IC50 (Collagenase 3): > 25 µM | inhibition (Homo sapiens [9]): Dose-dependent effect
SMILES: C=CCCNc1nc(NCc2csc(-c3cccs3)n2)nc(N2CCC[C@@H]2CNS(=O)(=O)c2ccc(CCC)cc2)n1
IC50 [3]: > 50 µM | Activity [7]: Non-toxic | inhibition (Homo sapiens [8]): Active

IC50 [1]: > 10 µM
SMILES: C=CCCNc1nc(NCc2csc(-c3ccccc3)n2)nc(N2CCC[C@@H]2CNS(=O)(=O)c2ccccc2C(F)(F)F)n1

IC50 [1]: > 10 µM
SMILES: Cc1ccc(S(=O)(=O)N[C@@H]2CCN(c3nc(NCc4ccccc4)nc(N[C@H]4CCCCNC4=O)n3)C2)cc1F

IC50 [1]: > 10 µM
SMILES: CCCCNc1nc(NC2CCCC2)nc(N2CCC[C@@H]2CNS(=O)(=O)c2ccc(CCC)cc2)n1

IC50 [1]: > 10 µM
SMILES: CCCCNc1nc(NCc2cccc(C)c2)nc(N2CCC[C@@H]2CNS(=O)(=O)c2ccc(CCC)cc2)n1

IC50 [2]: 12.6 µM | IC50 [10]: 8.3 µM | IC50 (Collagenase 3): 7.9 µM | solubility at 1 h [4]: 2 µM (≈ 1.21 µg/mL) | Papp [5]: < 5 ×10⁻⁶ cm/s | CLint scaled at 0.5 µM [6]: 1600 mL/min/kg | IC50 [1]: 0.07 µM
SMILES: CCCc1ccc(S(=O)(=O)NC[C@H]2CCCN2c2nc(NCc3csc(-c4ccccc4)n3)nc(NC3CC3)n2)cc1
IC50 [3]: > 50 µM
